{"source": "patent US8263643B2", "about": "“Polyphenol compounds with modulating neurotransmitter release” (Sungkyunkwan University Foundation for Corporate …, priority 2007, dated 2012)", "key": {"[1]": {"molecular_target": "T1, membrane fusion caused by SNARE (SNAP25, syntaxin 1A, VAMP2) (UniProt P60879+P63045+Q16623)", "T1 construct": "made in house; host or cells: E. coli (Codon (+) RIL, Novagen)", "T1 sequence (P60879 whole entry, the tested form may be a part)": "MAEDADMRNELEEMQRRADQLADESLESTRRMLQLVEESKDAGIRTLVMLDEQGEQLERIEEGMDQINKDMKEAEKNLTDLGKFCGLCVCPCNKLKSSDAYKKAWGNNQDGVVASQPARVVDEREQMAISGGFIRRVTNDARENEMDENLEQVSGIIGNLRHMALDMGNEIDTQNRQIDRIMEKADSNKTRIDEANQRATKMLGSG", "T1 sequence (Q16623 whole entry, the tested form may be a part)": "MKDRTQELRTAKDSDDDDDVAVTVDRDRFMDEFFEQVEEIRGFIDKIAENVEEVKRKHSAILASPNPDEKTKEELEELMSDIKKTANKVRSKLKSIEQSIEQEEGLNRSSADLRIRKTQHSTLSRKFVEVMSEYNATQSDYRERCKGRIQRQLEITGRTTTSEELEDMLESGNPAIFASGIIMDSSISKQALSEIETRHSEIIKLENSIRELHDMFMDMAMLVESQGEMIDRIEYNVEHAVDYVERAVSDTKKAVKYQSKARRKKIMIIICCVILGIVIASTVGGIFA", "T1 sequence (P63045 whole entry, the tested form may be a part)": "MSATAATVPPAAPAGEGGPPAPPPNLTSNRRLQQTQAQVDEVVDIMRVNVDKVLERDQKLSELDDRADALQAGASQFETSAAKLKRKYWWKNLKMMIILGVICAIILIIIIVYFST", "assay": "Membrane fusion assay with SNARE-reconstituted liposomes (fluorescence)", "assay_type": "biochemical", "conditions": "for Membrane fusion caused by SNARE (% of fusion without inhibitor) / remaining activity at 20 µM: 20 μM phenolic compound, 100% = no inhibitor added; for remaining activity at 20 µM: read-out: Membrane fusion caused by SNARE (% of fusion without inhibitor)", "experimental": "In order to produce SNARE proteins, SNARE proteins, such as SNAP25 (NM011428), syntaxin 1A (AF217197), and VAMP2 (NM012663), were purified in biologically transformed E. coli (Codon (+) RIL, Novagen).\nIn order to prepare liposome (fine membrane) marked with a fluorescent substance, POPC (62 mol %), DOPS (35 mol %), NBD-PS (1.5 mol %) and a fluorescent substance Rhodamin-PE (1.5 mol %) were mixed to obtain 10 mM of liposome (v-vesicle). Also, in order to prepare a liposome not marked with a fluorescent substance, DOPS and POPC were mixed in a molar concentration ratio of 35:65 to obtain 50 mM of liposome (t-vesicle). In order to prepare a complex of the purified SNAP25 and syntaxin 1a, the SNAP25 and the syntaxin 1a were mixed in a molar concentration ratio of 1:1, and then were reacted at room temperature for 1 hour. Then, the resultant mixture and the liposome not marked with a fluorescent substance were mixed in a molar ratio of 100:1. The VAMP2 and the liposome marked with a fluorescent substance were mixed in a molar ratio of 50:1. Then, each of the two kinds of liposomes was dialyzed by using 10 kDa dialyzing membrane through agitation at 4° C. for 24 hours, and the liposomes were mixed in a ratio of 3:7 (v-vesicle t-visicle). Next, fluorescence was measured by using a fluorometer (SpectraMax M2 manufactured by Molecular Device).\nHerein, 100% indicates the degree of membrane fusion in the state where no inhibitor was added. As the value is smaller, the inhibiting degree is higher."}, "[2]": {"molecular_target": "T2, SNARE complex (SNAP25, SynH3, Vps) (UniProt P60879+P63045+Q16623)", "T2 construct": "SynH3 (AF217197); Vps (NM012663); made in house; host or cells: E. coli (Codon (+) RIL, Novagen)", "T2 sequence (P60879 whole entry)": "as the sequence (P60879 whole entry, the tested form may be a part) above", "T2 sequence (Q16623 192-254 limits assumed)": "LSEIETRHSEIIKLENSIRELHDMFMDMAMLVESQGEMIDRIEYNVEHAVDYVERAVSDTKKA", "T2 sequence (P63045 2-94 limits assumed)": "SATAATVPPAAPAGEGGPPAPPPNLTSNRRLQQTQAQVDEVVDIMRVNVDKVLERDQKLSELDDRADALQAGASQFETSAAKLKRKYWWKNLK", "assay": "SDS-PAGE analysis of SNARE complex formation", "assay_type": "biochemical", "conditions": "for SNARE complex formation (%): control = 100, footnote: [phenolic compound]:SNAP-25 = 1:1, SNARE proteins 10 μM each, polyphenol 100 μM, room temperature 30 min", "experimental": "A SNARE complex is strong enough so as not to be untwisted by SDS. On the basis of such a property, a SDS-PAGE analysis was performed in order to determine the formation of a SNARE complex. Polyphenol compounds used in the present Example were purchased from Sigma-Aldrich, Wako Chemical, and Extrasynthese.\nIn order to produce SNARE proteins, SNARE proteins, such as, SNAP25 (NM011428), syntaxin 1A (AF217197), VAMP2 (NM012663), SynH3 (AF217197), and Vps (NM012663), were purified in biologically transformed E. coli (Codon (+) RIL, Novagen).\nThen, the materials were quickly mixed by a vortex, and were reacted at room temperature for 30 minutes. […]"}, "[3]": {"conditions": "molar concentration ratio phenolic compound:SNAP-25, average of at least three measurements"}}}
{"smiles": "Oc1cc(O)c2c(c1)O[C@H](c1ccc(O)c(O)c1)[C@@H](O)C2", "note": "[(+)-Catechin]", "values": [{"measurement": "Membrane fusion caused by SNARE (% of fusion without inhibitor)", "setting": "[1]", "result": "89.15 ± 1.19", "unit": "%"}, {"measurement": "SNARE complex formation (%)", "setting": "[2]", "result": "105.02 ± 11.37", "unit": "%"}]}
{"smiles": "Oc1cc(O)c2c(c1)O[C@H](c1ccc(O)c(O)c1)[C@H](O)C2", "note": "[(−)-Epicatechin]", "values": [{"measurement": "Membrane fusion caused by SNARE (% of fusion without inhibitor)", "setting": "[1]", "result": "97.98 ± 1.50", "unit": "%"}, {"measurement": "SNARE complex formation (%)", "setting": "[2]", "result": "114.55 ± 5.00", "unit": "%"}]}
{"smiles": "O=c1cc(-c2ccc(O)cc2)oc2cc(O)cc(O)c12", "note": "[Apigenin]", "values": [{"measurement": "remaining activity at 20 µM", "setting": "[1]", "result": "96.9 ± 7.99", "unit": "%"}, {"measurement": "SNARE complex formation (%)", "setting": "[2]", "result": "96.94 ± 7.99", "unit": "%"}]}
{"smiles": "O=C(O)/C=C/c1ccc(O)c(O)c1", "note": "[Caffeic acid]", "values": [{"measurement": "remaining activity at 20 µM", "setting": "[1]", "result": "125 ± 7.45", "unit": "%"}, {"measurement": "SNARE complex formation (%)", "setting": "[2]", "result": "93.33 ± 12.20", "unit": "%"}]}
{"smiles": "O=C(/C=C/c1ccc(O)c(O)c1)O[C@@H]1C[C@](O)(C(=O)O)C[C@@H](O)[C@H]1O", "note": "[Chlorogenic acid]", "values": [{"measurement": "remaining activity at 20 µM", "setting": "[1]", "result": "134 ± 1.49", "unit": "%"}, {"measurement": "SNARE complex formation (%)", "setting": "[2]", "result": "100.78 ± 13.62", "unit": "%"}]}
{"smiles": "O=c1cc(-c2ccccc2)oc2cc(O)cc(O)c12", "note": "[Chrysin]", "values": [{"measurement": "remaining activity at 20 µM", "setting": "[1]", "result": "121 ± 1.27", "unit": "%"}, {"measurement": "SNARE complex formation (%)", "setting": "[2]", "result": "98.12 ± 6.56", "unit": "%"}]}
{"smiles": "Oc1cc(O)c2cc(O)c(-c3ccc(O)c(O)c3)[o+]c2c1", "note": "[Cyanidin]", "values": [{"measurement": "remaining activity at 20 µM", "setting": "[1]", "result": "7.23 ± 1.08", "unit": "%"}, {"measurement": "SNARE complex formation (%)", "setting": "[2]", "result": "67.12 ± 20.31", "unit": "%"}]}
{"smiles": "O=c1c(-c2ccc(O)cc2)coc2cc(O)ccc12", "note": "[Daidzein]", "values": [{"measurement": "remaining activity at 20 µM", "setting": "[1]", "result": "113 ± 13.1", "unit": "%"}, {"measurement": "SNARE complex formation (%)", "setting": "[2]", "result": "104.06 ± 24.43", "unit": "%"}]}
{"smiles": "Oc1cc(O)c2cc(O)c(-c3cc(O)c(O)c(O)c3)[o+]c2c1", "note": "[Delphinidin]", "values": [{"measurement": "remaining activity at 20 µM", "setting": "[1]", "result": "37.5 ± 3.45", "unit": "%"}, {"measurement": "SNARE complex formation (%)", "setting": "[2]", "result": "60.53 ± 18.88", "unit": "%"}]}
{"smiles": "O=C(O[C@@H]1Cc2c(O)cc(O)cc2O[C@@H]1c1cc(O)c(O)c(O)c1)c1cc(O)c(O)c(O)c1", "note": "[EGCG, Epigallocatechin gallate]", "values": [{"measurement": "Membrane fusion caused by SNARE (% of fusion without inhibitor)", "setting": "[1]", "result": "57.59 ± 3.39", "unit": "%"}, {"measurement": "SNARE complex formation (%)", "setting": "[2]", "result": "112.38 ± 10.43", "unit": "%"}]}
{"smiles": "O=c1oc2c(O)c(O)cc3c(=O)oc4c(O)c(O)cc1c4c23", "note": "[Ellagic acid]", "values": [{"measurement": "remaining activity at 20 µM", "setting": "[1]", "result": "22 ± 2.05", "unit": "%"}, {"measurement": "Reduction of membrane fusion (in words)", "setting": "[1]; FIG. 3", "result": "can reduce membrane fusion"}, {"measurement": "Ratio for inhibition by 50% (IR50), membrane fusion", "setting": "[1]; [3]", "result": 7.31}, {"measurement": "Inhibition of SNARE complex formation (in words)", "setting": "[2]; FIG. 2, concentration series", "result": "inhibit the formation of a SNARE complex by 50% at a low concentration"}, {"measurement": "SNARE complex formation (%)", "setting": "[2]", "result": "87.54 ± 9.50", "unit": "%"}, {"measurement": "Ratio for inhibition by 50% (IR50), SNARE complex formation", "setting": "[2]; [3]", "result": 27.8}]}
{"smiles": "COc1cc(/C=C/C(=O)O)ccc1O", "note": "[Ferulic acid]", "values": [{"measurement": "remaining activity at 20 µM", "setting": "[1]", "result": "118 ± 2.79", "unit": "%"}, {"measurement": "SNARE complex formation (%)", "setting": "[2]", "result": "93.38 ± 14.39", "unit": "%"}]}
{"smiles": "O=c1c(O)c(-c2ccc(O)c(O)c2)oc2cc(O)ccc12", "note": "[Fisetin]", "values": [{"measurement": "remaining activity at 20 µM", "setting": "[1]", "result": "32.1 ± 4.14", "unit": "%"}, {"measurement": "SNARE complex formation (%)", "setting": "[2]", "result": "90.14 ± 10.42", "unit": "%"}]}
{"smiles": "O=c1c(-c2ccc(O)cc2)coc2cc(O)cc(O)c12", "note": "[Genistein]", "values": [{"measurement": "remaining activity at 20 µM", "setting": "[1]", "result": "119 ± 18.1", "unit": "%"}, {"measurement": "SNARE complex formation (%)", "setting": "[2]", "result": "96.76 ± 8.91", "unit": "%"}]}
{"smiles": "O=C(O)c1cc(O)ccc1O", "note": "[Gentisic acid]", "values": [{"measurement": "remaining activity at 20 µM", "setting": "[1]", "result": "96.7 ± 2.38", "unit": "%"}, {"measurement": "SNARE complex formation (%)", "setting": "[2]", "result": "100.16 ± 2.19", "unit": "%"}]}
{"smiles": "COc1cc2c(c(OC)c1OC)-c1c(cc3c(c1OC)OCO3)C[C@H](C)[C@H](C)C2", "note": "[Gomisiin N]", "values": [{"measurement": "Membrane fusion caused by SNARE (% of fusion without inhibitor)", "setting": "[1]", "result": "92.31 ± 2.37", "unit": "%"}, {"measurement": "SNARE complex formation (%)", "setting": "[2]", "result": "99.04 ± 5.17", "unit": "%"}]}
{"smiles": "O=c1c(O)c(-c2ccc(O)c(O)c2)oc2c(O[C@@H]3O[C@H](CO)[C@@H](O)[C@H](O)[C@H]3O)c(O)cc(O)c12", "note": "[Gossypin]", "values": [{"measurement": "Membrane fusion caused by SNARE (% of fusion without inhibitor)", "setting": "[1]", "result": "103.19 ± 9.01", "unit": "%"}]}
{"smiles": "O=c1c(O)c(-c2ccc(O[C@@H]3O[C@H](CO)[C@@H](O)[C@H](O)[C@H]3O)c(O)c2)oc2cc(O)cc(O)c12", "note": "[Spiraeoside]", "values": [{"measurement": "remaining activity at 20 µM", "setting": "[1]", "result": "107 ± 6.72", "unit": "%"}]}
{"smiles": "O=C1c2c(O)cc(O)cc2O[C@H](c2ccc(O)c(O)c2)[C@H]1O", "note": "[Taxifolin]", "values": [{"measurement": "remaining activity at 20 µM", "setting": "[1]", "result": "109 ± 3.92", "unit": "%"}]}
